{"source": "patent US20120028358A1", "about": "“METHOD FOR INCREASING RETROVIRAL INFECTIVITY” (priority 2010, published 2012)", "test_system": "rat PMVEC", "experiment": "Gamma-retroviral infection efficiency of PMVEC (percent fluorescent cells by FACS)", "assay_type": "cell-based", "settings": "1 μmol/L; MMLV with ecotropic, amphotropic, VSV-G pantropic envelope", "description": "Cell cultures: Phoenix Retroviral Expression System ecotropic and amphotropic packaging cells were purchased from Orbigen, Inc. (San Diego, Calif.). […] Rat pulmonary microvascular endothelial cells (PMVEC), were obtained from our cell culture core at the University of South Alabama (King J, et al. Structural and functional characteristics of lung macro and microvascular endothelial phenotypes. Microvascular Res. 2004, March, 67(2). 139-151). Human glioblastoma cells (U87MG), and human mammary carcinoma cells (T47D) were obtained from ATCC. All cells were cultured in DMEM, 10% FBS, 2 mmol L-Glutamine and used for experiments at passages 4-9. All cells were grown in humidified incubators at 37° C. in 5% CO2. Cells were harvested by 0.05% trypsin/0.53 mM EDTA digestion, washed, re-suspended in cultured medium and analyzed directly by FACScan in the University of South Alabama Flow Cytometry Core. For cell cycle analysis cellular DNA was stained with […] of propridium iodide for 20 minutes as described elsewhere (48) and then analyzed by FACScan.\nVectors and delivery systems: pBMN-GFP (Orbigen, Inc., San Diego, Calif.), a retroviral vector that expresses GFP driven by the MMLV's promoter in Phoenix and other cells was used. […]"}
{"smiles": "CC#C[C@]1(O)CC[C@H]2[C@@H]3CCC4=CC(=O)CCC4=C3[C@@H](c3ccc(N(C)C)cc3)C[C@@]21C", "note": "[mifepristone, 11-beta-(4-dimethylaminophenyl)-17-beta-hydroxy-17-alpha-(1-propynyl)-estra-4,9-dien-3-one]", "values": [{"measurement": "Percentage of infected cells", "value": "doubled"}]}
